≈ marks a conversion by molar mass, not a printed value.
Assays:
[1] = test system: concanavalin A-stimulated splenocytes; assay: Concanavalin A-stimulated splenocyte assay; assay type: cell-based, BALB/c mice; conditions: for IC50: immunosuppressive activity, ConA-stimulated murine splenocytes, [3H]thymidine incorporation, 7 point curves
Procedure: Concanavalin A-Stimulated Splenocyte Assay
Male BALB/c mice, at 5 to 7 weeks of age, were sacrificed by CO2 inhalation. Spleens were removed and dissociated by pushing through a nylon cell strainer. The splenocytes were washed in RPMI 1640/5% fetal calf serum (FCS) and pelleted at 400×g. Red blood cells were then lysed by resuspending the cell pellet in ACK lysis buffer (150 mM NH4Cl, 1 mM KHCO3, 0.1 mM EDTA, 3 mL per spleen) for 10 min at room temperature. After pelleting at 400×g, the cells were washed by resuspending in RPMI 1640/5% FCS and repelleting. The cell pellet was resuspended in RPMI 1640/5% FCS and again passed through a cell strainer to remove cell aggregates. The cells were then counted and adjusted to 2×10^6 cells/ml in RPMI 1640/10% FCS/50 μM 2-mercaptoethanol. Cell viability was assessed by Trypan blue staining. […] The cells were cultured in a 37° C. CO2 incubator for 2 days and then pulsed with 1 μCi of [^3H]thymidine for 6 hours. Cells were harvested onto filtermats with a TomTec 96 well plate harvester and lysed with H2O. The filtermat and scintillation fluid were sealed in a plastic sleeve. [^3H]thymidine incorporation was measured with a Wallac Trilux plate counter. Initial screens were done at a fixed value of 100 ng/ml test compound. IC50s were calculated from 7 point concentration-response curves using GraphPad software.

[2] = test system: hepatitis C virus replication; conditions: Paeshuyse et al. 2005; cited from earlier work
cyclophilin A = cyclophilin A (Homo sapiens, UniProt P62937); conditions: cited from earlier work
HIV-1 = conditions: literature report; cited from earlier work
calcineurin = conditions: cited from earlier work
[3] = test system: immunosuppressive activity; conditions: Mlynar et al. 1997; cited from earlier work

Chain of cyclophilin A (P62937 whole entry): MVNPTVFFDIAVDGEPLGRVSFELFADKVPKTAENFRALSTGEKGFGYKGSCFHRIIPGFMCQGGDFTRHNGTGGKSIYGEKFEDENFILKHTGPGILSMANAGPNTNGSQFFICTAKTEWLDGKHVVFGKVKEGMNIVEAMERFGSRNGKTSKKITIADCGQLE

Compound: CC[C@@H]1NC(=O)[C@H]([C@H](O)[C@H](C)C/C=C/Br)N(C)C(=O)[C@H](C(C)C)N(C)C(=O)[C@H](CC(C)C)N(C)C(=O)[C@H](CC(C)C)N(C)C(=O)[C@@H](C)NC(=O)[C@H](C)NC(=O)[C@H](CC(C)C)N(C)C(=O)[C@H](C(C)C)NC(=O)[C@H](CC(C)C)N(C)C(=O)CN(C)C1=O (relative stereo) [Example 19, trans-cyclosporin vinyl bromide]
- IC50 [1]: 9 ng/mL

Compound: C=C/C=C/C[C@@H](C)[C@@H](O)[C@H]1C(=O)N[C@@H](CC)C(=O)N(C)[C@H](CO)C(=O)N(C)[C@@H](CC(C)C)C(=O)N[C@@H](C(C)C)C(=O)N(C)[C@@H](CC(C)C)C(=O)N[C@@H](C)C(=O)N[C@H](C)C(=O)N(C)[C@@H](CC(C)C)C(=O)N(C)[C@@H](CC(C)C)C(=O)N(C)[C@@H](C(C)C)C(=O)N1C (relative stereo) [Example 67, trans-cyclosporin diene]
- IC50 [1]: 7 ng/mL (≈ 5.62 nM)

Compound: C/C=C/C[C@@H](C)[C@@H](O)[C@H]1C(=O)N[C@@H](CC)C(=O)N(C)[C@H](C)C(=O)N(CC)[C@@H](C(C)C)C(=O)N[C@@H](C(C)C)C(=O)N(C)[C@@H](CC(C)C)C(=O)N[C@@H](C)C(=O)N[C@H](C)C(=O)N(C)[C@@H](CC(C)C)C(=O)N(C)[C@@H](CC(C)C)C(=O)N(C)[C@@H](C(C)C)C(=O)N1C [DEBIO-025]
- inhibition of hepatitis C virus replication [2]: potent and selective inhibition of hepatitis C virus replication
- binding affinity for cyclophilin A (cyclophilin A): potent binding affinity

Compound: CC[C@@H]1NC(=O)[C@H]([C@H](O)[C@H](C)CC=CC(F)(F)F)N(C)C(=O)[C@H](C(C)C)N(C)C(=O)[C@H](CC(C)C)N(C)C(=O)[C@H](CC(C)C)N(C)C(=O)[C@@H](C)NC(=O)[C@H](C)NC(=O)[C@H](CC(C)C)N(C)C(=O)[C@H](C(C)C)NC(=O)[C@H](CC(C)C)N(C)C(=O)CN(C)C1=O [Example 31, cyclosporin fluoride]
- IC50 [1]: 38 ng/mL (≈ 30.2 nM)

Compound: CC[C@@H]1NC(=O)[C@H]([C@H](O)[C@H](C)CC=CCF)N(C)C(=O)[C@H](C(C)C)N(C)C(=O)[C@H](CC(C)C)N(C)C(=O)[C@H](CC(C)C)N(C)C(=O)[C@@H](C)NC(=O)[C@H](C)NC(=O)[C@H](CC(C)C)N(C)C(=O)[C@H](C(C)C)NC(=O)[C@H](CC(C)C)N(C)C(=O)CN(C)C1=O [Example 34, cyclosporin allylic fluoride]
- IC50 [1]: 12 ng/mL (≈ 9.83 nM)

Compound: C/C=C/C[C@@H](C)[C@@H](O)[C@H]1C(=O)N[C@@H](CC)C(=O)N(C)CC(=O)N(C)[C@@H]([C@@H](C)CC)C(=O)N[C@@H](C(C)C)C(=O)N(C)[C@@H](CC(C)C)C(=O)N[C@@H](C)C(=O)N[C@H](C)C(=O)N(C)[C@@H](CC(C)C)C(=O)N(C)[C@@H](CC(C)C)C(=O)N(C)[C@@H](C(C)C)C(=O)N1C [SDZ NIM 811]
- anti-HIV-1 activity (HIV-1): potent and selective anti-HIV-1 activity
- inhibition of calcineurin (calcineurin): does not inhibit calcineurin
- immunosuppressive activity [3]: completely devoid of immunosuppressive activity

Compound: cyclosporin vinyl iodide [Example 6]
- IC50 [1]: 11 ng/mL

Compound: trans-cyclosporin diene-d2 [Example 69]
- IC50 [1]: 4 ng/mL

Compound: trans-deuterated cyclosporin vinyl iodide [Example 9]
- potency in immunosuppression compared to cyclosporin A ([1]; FIG. 1, ConA-stimulated splenocyte assay): enhanced potency
- IC50 [1]: 7 ng/mL
